Measured values from ChEMBL document CHEMBL4842370, “Discovery of 1-(phenylsulfonyl)-1H-indole-based multifunctional ligands targeting cholinesterases and 5-HT6 receptor with anti-aggregation properties against amyloid-beta and tau” (Eur J Med Chem, 2021).
Activity calls are given as the source filed them. The calls are words filed in the database; no cut-off is given here.

Legend:
Acetylcholinesterase = Acetylcholinesterase (Electrophorus electricus, UniProt O42275); assay: Inhibition of electric eel AChE using acetylthiocholine iodide as substrate incubated for 5 mins followed by substrate addition and measured after 5 mins by spectrophotometric based Ellman's method
Homo sapiens = species: Homo sapiens; assay: Inhibition of tau protein (unknown origin) expressed in Escherichia coli BL21 (DE3) at 10 uM incubated for 24 hrs by microplate reader assay relative to control
Cholinesterase = Cholinesterase (Equus caballus, UniProt P81908)
Description: Inhibition of equine serum BuChE using butyrylthiocholine as substrate incubated for 5 mins followed by substrate addition and measured after 5 mins by spectrophotometric based Ellman's method

[1] = target: T1, Amyloid-beta precursor protein (Homo sapiens, UniProt P05067); assay: Inhibition of HFIP-pretreated human recombinant amyloid beta (1 to 42) self aggregation at 10 uM incubated up to 48 hrs under shaking condition and measured every 3 min by Thioflavin T based fluorescence assay relative to control
[2] = target: T1, Amyloid-beta precursor protein; assay: Inhibition of amyloid beta (1 to 42) (unknown origin) aggregation expressed in Escherichia coli BL21 (DE3) at 10 uM incubated for 24 hrs by microplate reader assay relative to control
[3] = target: T2, 5-hydroxytryptamine receptor 6 (Homo sapiens, UniProt P50406); assay: Displacement of [3H]-LSD from human 5HT6R expressed in CHO-K1 cell membranes incubated for 1 hr by scintillation counter method; set-up: species or system Membrane
Cytochrome P450 3A4 = Cytochrome P450 3A4 (Homo sapiens, UniProt P08684); assay: Inhibition of CYP3A4 (unknown origin) at <=10 uM; format: ADME
[4] = target: T1, Amyloid-beta precursor protein; assay: Inhibition of HFIP-pretreated human recombinant amyloid beta (1 to 42) self aggregation incubated up to 48 hrs under shaking condition and measured every 3 min by Thioflavin T based fluorescence assay
in vitro [5] = details: mouse, liver microsomes
HepG2 = assay: Cytotoxicity against human HepG2 cells assessed as cell reduction in cell viability incubated for 48 hrs by MTS assay; format: cell-based; details: HepG2, 48 h
Cytochrome P450 2D6 = Cytochrome P450 2D6 (Homo sapiens, UniProt P10635); assay: Inhibition of CYP2D6 (unknown origin) at <=10 uM; format: ADME
[6] = target: T2, 5-hydroxytryptamine receptor 6; assay: Antagonist activity at human 5HT6R expressed in 1321N1 cells assessed as inhibition of […] cAMP production measured after 30 mins by TR-FRET assay; format: functional, cell-based; details: filed as antagonist
in vitro [7] = details: PAMPA
Description: Permeability coefficient of the compound in PBS buffer incubated for 5 hrs by PAMPA-based LC-MS analysis

Acetylcholinesterase, sequence (O42275 whole entry): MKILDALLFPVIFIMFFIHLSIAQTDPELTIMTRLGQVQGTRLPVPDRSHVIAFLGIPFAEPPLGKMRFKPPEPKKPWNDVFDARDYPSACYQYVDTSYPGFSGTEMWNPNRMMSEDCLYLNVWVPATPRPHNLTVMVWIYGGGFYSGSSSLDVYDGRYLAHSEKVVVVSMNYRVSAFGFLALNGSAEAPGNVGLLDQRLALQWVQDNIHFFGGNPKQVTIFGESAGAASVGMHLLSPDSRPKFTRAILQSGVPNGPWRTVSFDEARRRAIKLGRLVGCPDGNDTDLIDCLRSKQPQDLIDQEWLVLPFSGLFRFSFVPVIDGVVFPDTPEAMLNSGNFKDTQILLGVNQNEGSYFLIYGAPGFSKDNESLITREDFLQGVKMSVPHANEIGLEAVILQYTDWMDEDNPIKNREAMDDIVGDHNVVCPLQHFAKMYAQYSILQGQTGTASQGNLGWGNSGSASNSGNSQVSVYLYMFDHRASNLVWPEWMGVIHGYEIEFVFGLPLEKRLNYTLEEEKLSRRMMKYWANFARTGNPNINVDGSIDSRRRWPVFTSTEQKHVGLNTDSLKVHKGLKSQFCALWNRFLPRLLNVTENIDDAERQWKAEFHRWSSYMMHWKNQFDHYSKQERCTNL
T1 sequence (P05067 whole entry): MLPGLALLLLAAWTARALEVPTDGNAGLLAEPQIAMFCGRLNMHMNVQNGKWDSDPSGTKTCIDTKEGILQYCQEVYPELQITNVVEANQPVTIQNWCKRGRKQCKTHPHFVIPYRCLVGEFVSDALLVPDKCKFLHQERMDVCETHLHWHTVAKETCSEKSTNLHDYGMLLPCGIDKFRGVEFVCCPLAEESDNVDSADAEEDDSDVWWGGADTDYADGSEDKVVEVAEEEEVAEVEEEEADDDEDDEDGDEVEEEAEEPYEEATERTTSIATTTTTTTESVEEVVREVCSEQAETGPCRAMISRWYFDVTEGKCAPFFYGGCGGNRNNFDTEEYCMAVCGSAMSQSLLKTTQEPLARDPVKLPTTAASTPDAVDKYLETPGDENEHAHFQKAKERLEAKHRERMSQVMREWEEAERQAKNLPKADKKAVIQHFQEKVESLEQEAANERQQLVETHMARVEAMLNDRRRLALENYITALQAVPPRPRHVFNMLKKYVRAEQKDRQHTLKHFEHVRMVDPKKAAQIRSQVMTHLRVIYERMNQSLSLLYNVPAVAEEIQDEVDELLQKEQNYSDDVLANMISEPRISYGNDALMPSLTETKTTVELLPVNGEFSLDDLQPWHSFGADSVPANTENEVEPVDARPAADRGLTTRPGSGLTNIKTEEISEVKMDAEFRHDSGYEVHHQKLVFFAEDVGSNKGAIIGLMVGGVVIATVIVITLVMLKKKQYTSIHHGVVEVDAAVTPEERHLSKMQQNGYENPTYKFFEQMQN
T2 sequence (P50406 whole entry): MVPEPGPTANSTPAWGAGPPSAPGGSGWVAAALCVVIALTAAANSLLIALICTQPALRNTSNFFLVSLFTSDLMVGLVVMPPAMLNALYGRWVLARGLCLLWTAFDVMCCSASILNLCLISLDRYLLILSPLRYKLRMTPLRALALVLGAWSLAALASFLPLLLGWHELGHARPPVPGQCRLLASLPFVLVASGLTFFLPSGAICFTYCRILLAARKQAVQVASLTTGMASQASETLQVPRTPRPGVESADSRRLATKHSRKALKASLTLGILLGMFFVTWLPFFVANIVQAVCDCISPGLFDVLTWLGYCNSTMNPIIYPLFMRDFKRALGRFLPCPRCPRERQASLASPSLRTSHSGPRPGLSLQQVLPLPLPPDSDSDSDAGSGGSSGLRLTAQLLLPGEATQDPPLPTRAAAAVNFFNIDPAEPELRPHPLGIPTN
Cholinesterase, sequence (P81908 whole entry): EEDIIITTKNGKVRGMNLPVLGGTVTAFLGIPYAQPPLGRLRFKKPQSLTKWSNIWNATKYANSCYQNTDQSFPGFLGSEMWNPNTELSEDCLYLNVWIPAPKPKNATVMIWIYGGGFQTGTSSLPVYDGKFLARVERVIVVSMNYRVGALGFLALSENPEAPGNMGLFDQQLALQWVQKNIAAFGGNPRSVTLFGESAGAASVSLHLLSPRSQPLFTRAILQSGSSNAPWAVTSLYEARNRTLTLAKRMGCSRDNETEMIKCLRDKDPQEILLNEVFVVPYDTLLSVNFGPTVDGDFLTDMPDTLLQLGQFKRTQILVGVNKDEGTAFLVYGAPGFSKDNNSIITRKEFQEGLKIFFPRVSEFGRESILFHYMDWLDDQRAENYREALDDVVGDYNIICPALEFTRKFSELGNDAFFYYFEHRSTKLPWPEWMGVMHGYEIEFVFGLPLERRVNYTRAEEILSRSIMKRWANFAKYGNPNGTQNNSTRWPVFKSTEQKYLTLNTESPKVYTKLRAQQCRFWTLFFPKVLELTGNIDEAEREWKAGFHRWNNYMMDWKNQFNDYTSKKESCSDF
Cytochrome P450 2D6, sequence (P10635 whole entry): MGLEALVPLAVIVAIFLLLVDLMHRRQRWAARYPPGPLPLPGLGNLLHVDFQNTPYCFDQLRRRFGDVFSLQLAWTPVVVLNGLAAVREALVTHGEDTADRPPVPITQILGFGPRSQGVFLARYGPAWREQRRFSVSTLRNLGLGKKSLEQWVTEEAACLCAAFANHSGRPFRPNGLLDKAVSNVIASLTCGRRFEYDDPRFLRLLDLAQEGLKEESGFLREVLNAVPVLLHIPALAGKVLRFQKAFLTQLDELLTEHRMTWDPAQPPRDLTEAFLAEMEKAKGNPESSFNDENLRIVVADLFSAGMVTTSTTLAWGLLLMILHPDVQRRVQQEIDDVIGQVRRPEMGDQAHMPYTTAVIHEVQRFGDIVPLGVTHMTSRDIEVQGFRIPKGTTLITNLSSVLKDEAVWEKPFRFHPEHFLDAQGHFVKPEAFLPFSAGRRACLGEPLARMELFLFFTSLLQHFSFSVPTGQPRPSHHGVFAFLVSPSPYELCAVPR
Cytochrome P450 3A4, sequence (P08684 whole entry): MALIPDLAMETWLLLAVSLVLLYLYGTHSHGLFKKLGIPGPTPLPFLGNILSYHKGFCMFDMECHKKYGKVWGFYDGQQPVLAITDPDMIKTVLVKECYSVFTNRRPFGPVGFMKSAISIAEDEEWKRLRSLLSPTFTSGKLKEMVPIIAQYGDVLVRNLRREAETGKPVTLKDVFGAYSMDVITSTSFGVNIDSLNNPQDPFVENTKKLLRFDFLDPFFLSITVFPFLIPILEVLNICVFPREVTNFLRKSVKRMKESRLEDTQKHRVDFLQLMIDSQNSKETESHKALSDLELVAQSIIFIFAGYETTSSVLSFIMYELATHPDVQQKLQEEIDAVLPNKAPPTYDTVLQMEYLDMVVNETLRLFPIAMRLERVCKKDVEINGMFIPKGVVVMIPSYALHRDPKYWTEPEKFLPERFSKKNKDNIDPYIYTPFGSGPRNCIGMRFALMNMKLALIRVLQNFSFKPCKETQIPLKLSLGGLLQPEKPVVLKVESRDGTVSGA

Row | SMILES | IC50 (Acetylcholinesterase) | inhibition (Homo sapiens) [%] | IC50 (Cholinesterase) [µM] | inhibition [1] | inhibition [2] [%] | Ki [3] [µM] | inhibition (INH) (Cytochrome P450 3A4) | IC50 (Acetylcholinesterase; read-out: IC50) [µM] | IC50 [4] [µM] | metabolised at 2 h (in vitro [5]) [%] | IC50 (HepG2) [µM] | inhibition (INH) (Cytochrome P450 2D6) | Kb [6] [µM] | Papp at 5 h (in vitro [7]) [×10⁻⁶ cm/s]
1 | O=S(=O)(c1ccccc1)n1ccc2c(OCCNCCNCc3ccc(Cl)cc3)cccc21 | Not Active | 58.2 | 1.99 | 60.6% | 31.9 | 0.001 | – | – | – | – | – | – | – | –
2 | O=S(=O)(c1ccccc1)n1ccc2c(OCCNCCNc3c4c(nc5ccccc35)CCCC4)cccc21 | – | – | 0.0244 | 74.8% | – | 0.013 | Not Active | 0.00842 | 1.1 | 72 | 79.6 | Not Active | – | –
3 | O=S(=O)(c1ccccc1)n1ccc2c(OCCNCCCNc3c4c(nc5ccccc35)CCCC4)cccc21 | – | – | 0.0188 | 61.1% | – | 0.01 | – | 0.0209 | – | – | – | – | – | –
4 | O=S(=O)(c1ccccc1)n1ccc2c(OCCNCCNCc3ccc(F)cc3)cccc21 | – | 58 | 1.3 | 73.4% | 23.7 | 0.0001 | – | 6210 | – | – | – | – | – | –
5 | Cc1cccc(CNCCNCCOc2cccc3c2ccn3S(=O)(=O)c2ccccc2)c1 | – | 58.8 | 1.07 | 57.4% | 48.5 | 0.002 | – | 4470 | – | – | – | – | – | –
6 | O=S(=O)(c1ccccc1)n1ccc2c(OCCNCCNCc3cccc(C(F)(F)F)c3)cccc21 | Not Active | 79.4 | 2.12 | inactive | 37.1 | 0.0017 | – | – | – | – | – | – | 0.007 | –
7 | COc1ccc(CNCCNCCOc2cccc3c2ccn3S(=O)(=O)c2ccccc2)cc1 | Not Active | 64 | 2.07 | 63.8% | 41.4 | 0.0035 | – | – | – | – | – | – | – | –
8 | O=S(=O)(c1ccccc1)n1ccc2c(OCCNCCCCCNCc3ccccc3)cccc21 | Not Active | 51.7 | 0.394 | 62.5% | 36.5 | 0.012 | – | – | – | – | – | – | – | –
9 | O=S(=O)(c1ccccc1)n1ccc2c(OCCNCCCCCCNc3c4c(nc5ccccc35)CCCC4)cccc21 | – | – | 0.00407 | 69.2% | – | 0.0086 | – | 0.0725 | – | – | – | – | – | –
10 | O=S(=O)(c1ccccc1)n1ccc2c(OCCNCCNCc3cccc(Cl)c3)cccc21 | – | 57.5 | 1.07 | 64.3% | 25.7 | 0.002 | – | 4.84 | – | – | – | – | – | –
11 | O=S(=O)(c1ccccc1)n1ccc2c(OCCNCCNCc3cc(Cl)cc(Cl)c3)cccc21 | Not Active | 62.3 | 1.66 | 57.2% | 40.9 | 0.011 | – | – | – | – | – | – | – | –
12 | O=S(=O)(c1ccccc1)n1ccc2c(OCCNCCNCc3ccccc3Cl)cccc21 | – | 53.5 | 0.586 | 57% | 27.5 | 0.003 | – | 4.24 | – | – | – | – | 0.058 | –
13 | O=S(=O)(c1ccccc1)n1ccc2c(OCCNCCCCCNc3c4c(nc5ccccc35)CCCC4)cccc21 | – | – | 0.00217 | 73.2% | – | 0.007 | – | 0.303 | – | – | – | – | – | –
14 | O=S(=O)(c1ccccc1)n1ccc2c(OCCNCCCCNc3c4c(nc5ccccc35)CCCC4)cccc21 | – | – | 0.00939 | 77.4% | – | 0.0035 | – | 0.0575 | – | – | – | – | 0.01 | –
15 | O=S(=O)(c1ccccc1)n1ccc2c(OCCNCCNCc3ccccc3)cccc21 | – | 58.1 | 0.528 | 55% | 26.9 | 0.003 | – | 2.87 | – | – | – | – | 0.009 | –
16 | O=S(=O)(c1ccccc1)n1ccc2c(OCCNCCCCNCc3ccccc3)cccc21 | Not Active | – | 0.887 | 41.8% | – | 0.008 | – | – | – | – | – | – | – | –
17 | CCN(C)C(=O)Oc1cccc(CNCCNCCOc2cccc3c2ccn3S(=O)(=O)c2ccccc2)c1 | Not Active | 68.7 | 0.454 | 68.1% | 77.5 | 0.015 | Not Active | – | 1.38 | 40 | 21.1 | Not Active | 0.048 | 1.27
18 | O=S(=O)(c1ccccc1)n1ccc2c(OCCNCCCNCc3ccccc3)cccc21 | Not Active | – | 0.701 | 53.2% | – | 0.008 | – | – | – | – | – | – | – | –
19 | CCN(C)C(=O)Oc1cccc([C@H](C)N(C)C)c1 | – | – | – | 86.6% | – | – | – | – | – | – | – | – | – | –
20 | O=[N+]([O-])c1ccc(CNCCNCCOc2cccc3c2ccn3S(=O)(=O)c2ccccc2)cc1 | Not Active | 62.3 | 4.26 | 57.7% | 31.6 | 0.002 | – | – | – | – | – | – | – | –
